Laboratory results reported in publication PMC9396645 (Frontiers in Chemistry, 2022).

Tests used:
C4-2 cells = assay: Internalization efficiency / specific cell uptake in C4-2 cells; assay type: cell-based, human; conditions: ^68Ga-labeled compounds 30 nM, 45 min, 37°C, specificity by 2-PMPA 500 μM, mean ± SD (n = 3)
Procedure: The specific internalization ratio was determinated in 24-well plates. The plates were previously coated with 0.1% poly-L-lysine in PBS for 20 min and washed with PBS once. C4-2 cells (10^5 cells per analysis) were added to each well and equilibrated overnight. The cells were incubated for 45 min with 250 µL of a 30 nM solution of the ^68Ga-labeled compounds either in a water bath at 37°C or on ice. The PSMA-receptor-blocking agent 2-(phosphonomethyl)pentanedioic acid (2-PMPA; 500 μM; Axxora) was used to verify the specificity of the cellular uptake of the novel compounds. The cells were washed thrice (using 1 ml of ice-cold PBS), followed by an incubation with 0.5 ml of a glycine solution (50 mM in HCl at a pH of 2.8) for 5 min, washed once with 1 ml of ice-cold PBS, and finally lysed with 0.5 ml of 0.3 M NaOH. The lysate was collected, and the radioactivity was measured in a gamma-counter. Triplicate measurements were performed for all experiments.

[1] = Determination of plasma half-life in athymic nude mice; assay type: in vivo, mouse; conditions: athymic nude mice (n = 3), i.v. 4–6 MBq, biexponential fit, weighted overall half-life
Procedure: The radioligands ^68Ga-CA027 and ^68Ga-CA028 (4–6 MBq) were injected into athymic nude mice (n = 3) via the lateral tail vein. Blood (25–50 μL) was collected 2, 5, 15, 30, 45, 60, 90, and 120 min post injection via either the tail or saphenous vein, and the activity of the blood samples was determined in a γ-counter. Both procedures furnished consistent and reproducible results. The percentage of the injected dose per gram of tissue (%ID/g) was calculated, and the resulting values were plotted as a function of time. A biexponential decay curve was used as a fit function, accounting for a short blood half-life (a-phase) during the initial phase directly after injection and a longer blood half-life during the terminal phase (b-phase). The data analysis program Prism 7™ was used to determine both half-lives, t1/2-a and t1/2-b, as well as their relative contribution (in %) to the overall half-life (t1/2). Subsequently, both half-lives were weighed according to their relative contribution to the overall blood half-life t1/2. At the time of tracer injection (t = 0), it was assumed that %ID/g = 50. The injected dose at t = 0 equals 100%, divided by the total mass of blood (approximately 2 g in the case of 6‒8 weeks old mice) gives %ID/g t=0 = 50.

[2] = test system: C4-2 tumor bearing BALB/c nu/nu mice; assay: Small-animal PET imaging in C4-2 tumor bearing mice; assay type: in vivo, mouse; conditions: for mSUV Bladder / mSUV Heart / mSUV Kidneys / mSUV Liver / mSUV Muscle / mSUV Tumor: small-animal PET, C4-2 xenograft mouse
From the text: Athymic male nude mice (BALB/c nu/nu) were purchased from Charles River at 4‒5 weeks of age (19–23 g). The mice were kept under pathogen-free conditions for 1 week prior to the study. The mice had free access to water and food and were housed with a 12-h/12-h light/dark cycle. The xenografts required for positron emission tomography (PET) imaging and biodistribution studies were obtained by inoculation of 5 × 10^7 C4-2 cells in 50% Matrigel in Opti-MEM I (1 ×) medium. For this purpose, the mice were anesthetized with 2% sevoflurane, and inoculation was performed subcutaneously on the right trunk. When the size of the tumor was approximately 1 cm^3, the studies were performed.
For small-animal PET imaging, the different ^68Ga-labeled PSMA ligands (0.5 nmol, 20 MBq in approximately 100 µL 0.9% saline) were injected into C4-2 tumor bearing mice. The dynamic PET was recorded in a small animal PET scanner (Siemens Inveon D-PET). The standardized uptake values (SUVs) were obtained from conventional (non-dynamic) PET images. The formula for the SUV was SUV=activity in ROI (Bq/ml) × animal weight (g)/injected dose(Bq)
Manual delineation of the respective appropriate whole organ (heart, kidneys, bladder, tumor, with an approximate volume of 100–500 µL) yielded the volumes of interest (VOIs). For this purpose, whole organs or parts of the organ/tissue (liver and muscle) were used. The images were reconstructed based on the procedure: OSEM 3D/SP MAP with 16 subsets, two iterations, and an image x-y size: 256, image z size: 161. The data were not modified with a post-processing filter. Analysis of the images and time-activity curves (TACs) was conducted on the Inveon™ Acquisition Workplace (IAW) from Siemens IRW 4.1. […] […] The mean SUVs were plotted over time in order to compare the different radiotracers.

prostate cancer patients = assay: PSMA-PET/CT of prostate cancer patients; assay type: in vivo, human; conditions: patient PET/CT, 20 nmol
Procedure: Diagnostic PSMA-PET/computed tomography (CT) examinations were performed 1 and 3 h after antecubital injection of 339 MBq/20 nmol ^68Ga-CA028 or 295 MBq/20 nmol ^68Ga-CA030 per patient, respectively. The method for assessing the biodistribution was performed as previously described by Afshar-Oromieh et al. ([Afshar-Oromieh et al., 2015b]). Applying the clinical standard software Syngo (Siemens), which was used to define the VOIs in the PET images, the activity distributions of the source organs was determined. This reference ([Afshar-Oromieh et al., 2015b]) was also used as a standard of reference for ^68Ga-PSMA-617 (Table 3).

O=C([O-])CN1CCN(CC(=O)[O-])CCN(Cc2ccc(C(=O)NCC3CCC(C(=O)NC(Cc4ccc5ccccc5c4)C(=O)NCCCCC(NC(=O)NC(CCC(=O)O)C(=O)O)C(=O)O)CC3)cc2)CCN(CC(=O)[O-])CC1.[68Ga+3] (stereo not drawn) [^68Ga-CA028]
Specific lysate (internalization) (C4-2 cells): 41.2 ± 2.7 %IA/10^6 cells | plasma half-life t1/2 [1]: 5.2 min | mSUV Bladder ([2]; 1 h): 6.50 | mSUV Heart ([2]; 1 h): 0.36 | mSUV Kidneys ([2]; 1 h): 0.39 | mSUV Liver ([2]; 1 h): 0.22 | mSUV Muscle ([2]; 1 h): 0.13 | mSUV Tumor ([2]; 1 h): 0.81 | mSUV Bladder ([2]; 2 h): 2.5 | mSUV Heart ([2]; 2 h): 0.13 | mSUV Kidneys ([2]; 2 h): 0.29 | mSUV Liver ([2]; 2 h): 0.09 | mSUV Muscle ([2]; 2 h): 0.05 | mSUV Tumor ([2]; 2 h): 0.78 | tumor-to-kidney ratio ([2]; mean SUV body weight from dynamic PET, 1 h p.i.): 2.08 | tumor-to-kidney ratio ([2]; mean SUV from PET, 2 h p.i.): 2.69 | SUV mean Bone metastasis (prostate cancer patients; first listed bone metastasis, 1 h p.i.): 4.5 | SUV mean Bone metastasis (prostate cancer patients; first listed bone metastasis, 3 h p.i.): 4.1 | SUV mean Lymph node (prostate cancer patients; first listed lymph node, 1 h p.i.): 13.5 | SUV mean Lymph node (prostate cancer patients; first listed lymph node, 3 h p.i.): 10.7 | SUV mean Blood pool, mediastinal (prostate cancer patients; 1 h p.i.): 3.2 | SUV mean Colon (prostate cancer patients; 1 h p.i.): 4.9 | SUV mean Gluteal muscle (prostate cancer patients; 1 h p.i.): 0.7 | SUV mean Kidneys (prostate cancer patients; 1 h p.i.): 13.8 | SUV mean Lacrimal gland (prostate cancer patients; 1 h p.i.): 7.4 | SUV mean Liver (prostate cancer patients; 1 h p.i.): 4.3 | SUV mean Lung metastasis (prostate cancer patients; 1 h p.i.): 5.7 | SUV mean Nasal mucosa (prostate cancer patients; 1 h p.i.): 2.9 | SUV mean Parotid gland (prostate cancer patients; 1 h p.i.): 11.0 | SUV mean Proximal small intestine (prostate cancer patients; 1 h p.i.): 8.4 | SUV mean Spleen (prostate cancer patients; 1 h p.i.): 5.1 | SUV mean Sublingual gland (prostate cancer patients; 1 h p.i.): 3.8 | SUV mean Submandibular gland (prostate cancer patients; 1 h p.i.): 14.4 | SUV mean Blood pool, mediastinal (prostate cancer patients; 3 h p.i.): 2.9 | SUV mean Colon (prostate cancer patients; 3 h p.i.): 4.2 | SUV mean Gluteal muscle (prostate cancer patients; 3 h p.i.): 0.4 | SUV mean Kidneys (prostate cancer patients; 3 h p.i.): 10.9 | SUV mean Lacrimal gland (prostate cancer patients; 3 h p.i.): 7.6 | SUV mean Liver (prostate cancer patients; 3 h p.i.): 1.8 | SUV mean Lung metastasis (prostate cancer patients; 3 h p.i.): 4.7 | SUV mean Nasal mucosa (prostate cancer patients; 3 h p.i.): 3.5 | SUV mean Parotid gland (prostate cancer patients; 3 h p.i.): 8.0 | SUV mean Proximal small intestine (prostate cancer patients; 3 h p.i.): 10.4 | SUV mean Spleen (prostate cancer patients; 3 h p.i.): 2.5 | SUV mean Sublingual gland (prostate cancer patients; 3 h p.i.): 2.8 | SUV mean Submandibular gland (prostate cancer patients; 3 h p.i.): 8.9 | SUV mean Bone metastasis (prostate cancer patients; second listed bone metastasis, 1 h p.i.): 6.9 | SUV mean Bone metastasis (prostate cancer patients; second listed bone metastasis, 3 h p.i.): 5.7 | SUV mean Lymph node (prostate cancer patients; second listed lymph node, 1 h p.i.): 17.0 | SUV mean Lymph node (prostate cancer patients; second listed lymph node, 3 h p.i.): 25.4 | SUV mean Bone metastasis (prostate cancer patients; third listed bone metastasis, 1 h p.i.): 4.6 | SUV mean Bone metastasis (prostate cancer patients; third listed bone metastasis, 3 h p.i.): 4.4 | SUV mean Lymph node (prostate cancer patients; third listed lymph node, 1 h p.i.): 5.0 | SUV mean Lymph node (prostate cancer patients; third listed lymph node, 3 h p.i.): 4.1
